Data from paper PMC9354954, “Assessing Bioavailability and Bioactivity of 4-Hydroxythiazolidine-2-Thiones, Newly Discovered Glucosinolate Degradation Products Formed During Domestic Boiling of Cabbage” (Frontiers in Nutrition, 2022).
Read-outs that look alike come from different tables or passages of the source.

Key:
Caco-2 cells = assay: Cytotoxicity, MTT assay; type: cell-based, human; settings: Caco-2, MTT assay, up to 100 μM, 24 h
Protocol: (§1) To determine the cytotoxicity of allyl HTT and 4-MSOB HTT, HepG2 and Caco-2 cells were seeded in a 96-well TC-plate (standard F, sterile, from Sarsted, Nümbrecht, Germany) using a seeding density of 20,000 cells/well. After 24 h, the medium was exchanged to 200 μL pure medium or 200 μL medium containing allyl HTT or 4-MSOB HTT with concentrations in the range of 0.1–100 μM. The cells were treated for 24 h under cell culture conditions (prepared for three biological replicates, every 3 technical replicates). Cell viability was determined using the MTT assay and the neutral red uptake assay based on Schröter et al. ([27]). In the case of MTT assay, after 24 h of HTT treatment, 20 μL of MTT solution (75 mg MTT in 15 mL PBS) were added, and cells were incubated for 60 min under cell culture conditions. Afterward, the supernatant was removed and 100 μL of lysis buffer (5% formic acid in isopropanol) was added and the plate was shaken for 10 min at 300 rpm before measuring the absorption at 550 ± 5 nm (reference 690 ± 5 nm) by a Tecan i-control Infinite M200 PRO plate reader (Crailsheim, Germany). In the case of the neutral red uptake assay, the supernatant was removed after 24 h HTT treatment, and 100 μL neutral red solution (40 mg neutral red in 10 mL PBS, freshly diluted 1:100 with medium and incubated for 24 h under cell culture conditions) was added. After incubation of neutral red solution for 2 h under cell culture conditions, the supernatant was removed, and cells were washed with 150 μL of PBS. After removing PBS, 150 μL desorb solution (49.5% water/49.5% ethanol/1% acetic acid) was added and the plate was shaken for 10 min at 300 rpm before measuring the absorption at 540 ± 5 nm by Tecan i-control Infinite M200 PRO plate reader. The mean ± SD is used for presenting the results of three technical replicates for each data point of the three biological replicates.

HepG2 cells = assay: Cytotoxicity, MTT assay; type: cell-based, human; settings: up to 100 μM, 24 h
Protocol: as §1

[1] = Stability in an in vitro stomach model; type: in vitro ADME; settings: 100 μM, 2 h, 37°C, stomach model solution pH 2
Protocol: To investigate the stability of the HTTs in the process of nutrient absorption, allyl HTT and 4-MSOB HTT were incubated (prepared as triplicates) at a concentration of 100 μM in an in vitro stomach model solution containing 2.9 g/L NaCl, 0.7 g/L KCl, 0.27 g/L KH2PO4, 0.78 g/L pepsin, and 3 g/L mucin-type II and adjusted with 1 M HCl to pH 2.0 based on literature ([25]). To simulate the stomach, samples were shaken slightly for 2 h at 200 rpm in a thermoshaker (MHR 23, Hettich Benelux B.V, Netherlands) at 37°C. Afterward, 500 μL of MeCN were added to 500 μL of stomach model solution to precipitate proteins and salts. The suspension was centrifuged for 3 min at 4,000 g and the supernatant was analyzed by HPLC-UV at a wavelength of 274 ± 2 nm. The stability of allyl HTT and 4-MSOB HTT in the stomach model was determined by the recovery compared to incubation in pure water at room temperature. […]

[2] = Antioxidant potential, DPPH assay; settings: compared to compound free blank
Protocol: (§2) To evaluate the potential of allyl HTT and 4-MSOB HTT to act as antioxidants, ABTS and DPPH were used as model radicals and Trolox as reference antioxidants based on Shalaby and Shanab ([28]). In total, 1.5 mg of ABTS and 0.26 mg potassium peroxodisulfate were dissolved in 4 mL of pure water and incubated in the dark overnight at room temperature. Afterward, 36 mL of MeOH were added to obtain the fresh ABTS working solution. In the case of the DPPH assay, 1.1 mg of DPPH were dissolved in 4 mL of MeOH and incubated for 2 h in the dark at 4°C, followed by the addition of 36 mL of MeOH to obtain the fresh DPPH working solution. Standards of Trolox, allyl HTT, and 4-MSOB HTT were prepared in water/MeOH (90/10, v/v%) at concentrations in the range of 6.25–100 μM. To detect the antioxidant potential, 100 μL of standard or water/MeOH (90/10, v/v%) as control were added to 1,000 μL of ABTS or DPPH working solution, and the extinction was measured directly after mixing and after 6 min of incubation in the dark with a spectrometer (UviLine 9100, Schott Instruments, Mainz, Germany) at 734 nm in the case of ABTS assay and 515 nm in DPPH assay (each prepared as duplicate). The results are reported as mean ± SD of the reduction of the extinction compared to the control.

[3] = Antioxidant potential, ABTS assay; settings: compared to compound free blank
Protocol: as §2

[4] = inverse exposure: spiked in the lower compartment, 2 min
[5] = inverse exposure: spiked in the lower compartment, 1 h
[6] = inverse exposure: spiked in the lower compartment, 2 h
[7] = inverse exposure: spiked in the lower compartment, 24 h
[8] = spiked in the upper compartment, 2 min
[9] = spiked in the upper compartment, 1 h
[10] = spiked in the upper compartment, 2 h
[11] = spiked in the upper compartment, 24 h

Row | SMILES | effect on cell viability compared to untreated cells (Caco-2 cells) | effect on cell viability compared to untreated cells (HepG2 cells) | Concentration ratio of compartment non-spiked vs. spiked (Caco-2 cell layer; [4]) [%] | Concentration ratio of compartment non-spiked vs. spiked (Caco-2 cell layer; [5]) [%] | Concentration ratio of compartment non-spiked vs. spiked (Caco-2 cell layer; [6]) [%] | Concentration ratio of compartment non-spiked vs. spiked (Caco-2 cell layer; [7]) [%] | Concentration ratio of compartment non-spiked vs. spiked (Caco-2 cell layer; [8]) [%] | Concentration ratio of compartment non-spiked vs. spiked (Caco-2 cell layer; [9]) [%] | Concentration ratio of compartment non-spiked vs. spiked (Caco-2 cell layer; [10]) [%] | Concentration ratio of compartment non-spiked vs. spiked (Caco-2 cell layer; [11]) [%] | recovery compared to the pure water control reference [1] [%] | Relative signal reduction of the extinction value of the radical DPPH ([2]; 6.25 µM) [%] | Relative signal reduction of the extinction value of the radical DPPH ([2]; 12.5 µM) [%] | Relative signal reduction of the extinction value of the radical DPPH ([2]; 25 µM) [%] | Relative signal reduction of the extinction value of the radical DPPH ([2]; 50 µM) [%] | Relative signal reduction of the extinction value of the radical DPPH ([2]; 100 µM) [%] | Relative signal reduction of the extinction value of the radical ABTS ([3]; 6.25 µM) [%] | Relative signal reduction of the extinction value of the radical ABTS ([3]; 12.5 µM) [%] | Relative signal reduction of the extinction value of the radical ABTS ([3]; 25 µM) [%] | Relative signal reduction of the extinction value of the radical ABTS ([3]; 50 µM) [%] | other results
1 | C[S+]([O-])CCCCN1C(=S)SCC1O (stereo not shown) [4-MSOB HTT, 4-hydroxy-3-(4-(methylsulfinyl)butyl)thiazolidine-2-thione] | did not show any effect on cell viability | did not show any effect on cell viability | 0 | 5 | 11 | 99 | 0 | 1 | 3 | 54 | 98 ± 3 | 0.3 ± 0.4 | 0.0 ± 0.3 | 0.3 ± 0.3 | 0.3 ± 0.4 | 0.3 ± 0.4 | 0.6 ± 0.5 | -0.1 ± 0.5 | -0.5 ± 0.4 | 1.1 ± 0.8 | Relative signal reduction of the extinction value of the radical ABTS ([3]; 100 µM): 0.4 ± 0.5%
2 | C=CCN1C(=S)SCC1O (stereo not shown) [allyl HTT, 3-allyl-4-hydroxythiazolidine-2-thione] | did not show any effect on cell viability | did not show any effect on cell viability | 0 | 39 | 64 | 102 | 1 | 17 | 42 | 96 | 98 ± 2 | 0.2 ± 0.3 | 0.0 ± 0.3 | 0.1 ± 0.3 | 0.1 ± 0.3 | 0.0 ± 0.3 | -0.2 ± 0.3 | -0.3 ± 0.3 | 0.4 ± 0.4 | 0.3 ± 0.5 | measured ratio for the higher uptake of allyl HTT compared to 4-MSOB HTT (Caco-2 cell layer; human, Caco-2, 100 μM): 10 fold; Relative signal reduction of the extinction value of the radical ABTS ([3]; 100 µM): -0.3 ± 0.3%
